In paper PMC12297997, “Differential Emodepside Efficacy in Drug-Resistant and Drug-Susceptible Ancylostoma caninum Highlights Variability in Potassium Channel Activity” (Tropical Medicine and Infectious Disease, 2025):
Like-named read-outs stand apart in the source and are kept apart here.

Assays:
[1] = test system: Ancylostoma caninum L3, drug-susceptible (WMD) isolate; experiment: In vitro L3 larval survival assay, drug-susceptible WMD isolate; assay type: cell-based
Method: (§1) The wild-type (WMD) and triple-anthelmintic-resistant (BCR) isolates of A. caninum used in this study have been previously described. […] Both isolates were maintained in beagles according to established protocols.
(§2) Stock solutions of pyrantel, ivermectin, and emodepside were prepared in appropriate solvent mixtures of DMSO and BU buffer (50 mM Na2HPO4, 22 mM KH2PO4, 70 mM NaCl, pH 6.8). To account for solubility differences, pyrantel was prepared in 20% DMSO, ivermectin in 4% DMSO, and emodepside in 25% DMSO. Penitrem A was dissolved in 100% DMSO to make a 500 µM stock solution. A vehicle control solution was also prepared for each drug, containing the maximum DMSO concentration used in the stock solutions to ensure that solvent effects across treatments were adequately controlled.
(§3) Infective A. caninum L3 were collected from coproculture at least 7 days post-culture using a modified Baermann method and stored in BU in a 50 mL culture flask at room temperature for up to four weeks prior to use. The survival assay to evaluate the response of A. caninum L3 to various anthelmintics was adapted from a previously established motility assessment study.
(§4) Prior to use, L3 were surface sterilized by incubation in 1% (v/v) HCl for 30 min, followed by two washes with sterile BU buffer. The sterilized larvae were resuspended in BU to a concentration of 75 L3 per 90 µL. Larvae were transferred in aliquots of 90 µL to individual wells in a 96-well plate, and 10 µL of the appropriate drug or control solution was added to each well, bringing the final volume to 100 µL. Plates were incubated at room temperature in the dark for 24 h.
(§5) Following incubation, survival was assessed by adding 50 microliters of 50° C water to each well immediately before counting. […] For each well, the total number of living and dead L3 were counted, and percent survival was calculated as below:(1) Survival (%)=[…]
(§6) Microsoft Excel was used to normalize raw survival percentages to their respective controls and calculate standard deviation for each condition. Statistical analysis was performed using GraphPad Prism (ver. 10, GraphPad Software, La Jolla, CA, USA). Using the mean, standard deviation, and sample size calculated in Excel, multiple unpaired t-tests were performed to determine the individual variance in means between WMD and BCR.

[2] = test system: Ancylostoma caninum L3, triple-anthelmintic-resistant (BCR) isolate; experiment: In vitro L3 larval survival assay, triple-anthelmintic-resistant BCR isolate; assay type: cell-based; conditions: for Difference in mean survival between BCR and WMD: BCR versus WMD L3, across all tested concentrations (4–40 µg/mL), two-tailed unpaired t-test, p < 0.0001
Method: as §1, §2, §3, §4, §5, §6

MADR A. caninum = test system: MADR A. caninum; design: method as in PMID 36520649; conditions: dogs infected with MADR A. caninum; cited from earlier work
[3] = cited from earlier work; for Corresponding Cmax: po
[4] = stated without reference; cited from earlier work
[5] = test system: Ancylostoma caninum L3, drug-susceptible (WMD) isolate; experiment: Emodepside + penitrem A survival assay (SLO-1 modulation), WMD isolate; assay type: cell-based; conditions: 0.25 µM penitrem A + emodepside 7.5 µg/mL, 24 h, mean ± SD
Method: as §4, §5
(§7) To further investigate the specific mechanism of emodepside action, the SLO-1 channel inhibitor penitrem A was co-incubated with emodepside. The concentration of emodepside was kept constant (7.5 µg/mL) while that of penitrem A was titrated from 1 µM to 0.05 µM. […] Survival was assessed as above.
as §6, with “Statistical analysis was performed using GraphPad Prism (ver. 10, GraphPad Software, La Jolla, CA, USA).” left out

[6] = test system: Ancylostoma caninum L3, triple-anthelmintic-resistant (BCR) isolate; experiment: Emodepside + penitrem A survival assay (SLO-1 modulation), BCR isolate; assay type: cell-based; conditions: 0.25 µM penitrem A + emodepside 7.5 µg/mL, 24 h, mean ± SD
Method: as §4, §5, §7
as §6, with “Statistical analysis was performed using GraphPad Prism (ver. 10, GraphPad Software, La Jolla, CA, USA).” left out

Question: With emodepside as the molecule, how does the “Percent survival of L3, normalized to vehicle control” value (shortened to “Percent survival of L3, normalized”) ([1]; 7.5 µg/mL, 24 h, mean ± SD) read?
Answer: 13.1% ± 4.1

Question: What about the “Percent survival of L3, normalized” value ([1]; 30 µg/mL (maximum dose tested), 24 h, mean ± SD) of the same molecule?
Answer: 3.4% ± 3.3

Question: And the “IC50 (nonlinear regression of percent survival vs log concentration)” value ([1]; 24 h survival)?
Answer: 2.81 µg/mL

Question: What about the “Surviving L3” value ([2]; BCR L3, 30 µg/mL (maximum dose tested), 24 h) of the same molecule?
Answer: none

Question: And the “IC50 (nonlinear regression of percent survival vs log concentration)” value ([2]; BCR L3, 24 h survival)?
Answer: 1.77 µg/mL

Question: What about the “Percent survival of L3” value ([2]; BCR L3, starting at 7.5 µg/mL, 24 h) of the same molecule?
Answer: killed all BCR larvae

Question: What about the “Difference in percent survival between WMD and BCR” value ([2]; WMD versus BCR L3, 3 µg/mL (greatest difference)) of the same molecule?
Answer: 21.8±4.4

Question: And the “Greater effectiveness than drugs from other classes in reducing fecal egg count” value (MADR A. caninum)?
Answer: at least 50%

Question: What about the “Corresponding Cmax” value ([3]; in vivo) of the same molecule?
Answer: 37 ng/mL

Question: For ivermectin, which “Normalized survival of L3” value ([1]; low dose 4 µg/mL, 24 h, room temperature, dark, mean ± SD) is on record?
Answer: 14.9±9.7%

Question: And the “Normalized survival of L3” value ([2]; BCR L3, low dose 4 µg/mL, 24 h, room temperature, dark, mean ± SD)?
Answer: 54.2±11.4%

Question: And the “Difference in mean survival between BCR and WMD” value [2]?
Answer: 39.0 ± 3.0%

Question: And the “Difference in mean survival between BCR and WMD” value ([2]; listed as ivermectin)?
Answer: approximately 40%

Question: What about the Aqueous solubility [4] of the same molecule?
Answer: < 10 µg/mL

Question: What about the Cmax ([3]; typical therapeutic dose 150–200 mg/kg, single oral administration) of the same molecule?
Answer: 38 to 46 ng/mL

Question: With CN1CCCN=C1/C=C/c1cccs1 [Pyrantel, pyrantel pamoate] as the molecule, how does the “Percent survival of L3, normalized” value ([1]; 100 µg/mL, 24 h, room temperature, dark, mean ± SD) read?
Answer: 43.9±13.7%

Question: What about the “Mortality of L3” value ([1]; 10–50 µg/mL, 24 h) of the same molecule?
Answer: almost no mortality

Question: What about the “Percent survival of L3, normalized” value ([2]; BCR L3, 100 µg/mL, 24 h, room temperature, dark, mean ± SD, difference to WMD not significant (p = 0.054)) of the same molecule?
Answer: 59.2±10.4%

Question: And the “Mortality of L3” value ([2]; BCR L3, 10–50 µg/mL, 24 h)?
Answer: almost no mortality

Question: What about the Cmax ([3]; in vivo, 100 mg/kg) of the same molecule?
Answer: 110 ng/mL

Question: And the “Corresponding Cmax” value ([3]; in vivo)?
Answer: 110 ng/mL

Question: With penitrem A as the molecule, how does the “Percent survival of L3 co-incubated with emodepside” value [5] read?
Answer: 29.8% ± 11.5

Question: What about the “Percent survival of L3 co-incubated with emodepside” value [6] of the same molecule?
Answer: 78.2% ± 13.8
